# Assay results published in patent US20230056135A1, “MONOMER AND MULTIMERIC ANTI-HBV AGENTS” (priority 2018, published 2023).
# Read-outs that look alike come from different tables or passages of the source.
# Key:
# [1] = Cellular toxicity assay in Vero cells; type: cell-based; details: African green monkey
# Protocol: (§1) The toxicity of the compounds was assessed in Vero, human PBM, CEM (human lymphoblastoid), MT-2, and HepG2 cells, as described previously (see Schinazi R. F., Sommadossi J.-P., Saalmann V., Cannon D. L., Xie M.-Y., Hart G. C., Smith G. A. & Hahn E. F. Antimicrob. Agents Chemother. 1990, 34, 1061-67). Cycloheximide was included as positive cytotoxic control, and untreated cells exposed to solvent were included as negative controls. The cytotoxicity IC50 was obtained from the concentration-response curve using the median effective method described previously (see Chou T.-C. & Talalay P. Adv. Enzyme Regul. 1984, 22, 27-55; Belen'kii M. S. & Schinazi R. F. Antiviral Res. 1994, 25, 1-11).
# [2] = Cellular toxicity assay in CEM cells; type: cell-based, human; details: human
# Protocol: as §1
# [3] = Cellular toxicity assay in HepG2 cells; type: cell-based; details: human
# Protocol: as §1
# wild type HBV = test: Anti-HBV assay in AD-38 cell line (HBV in culture supernatant); type: cell-based; details: for EC50: read-out: Anti-HBV activity EC50; for EC90: read-out: Anti-HBV activity EC90
# Protocol: The anti-HBV activity of the compounds was determined by treating the AD-38 cell line carrying wild type HBV under the control of tetracycline (see Ladner S. K., Otto M. J., Barker C. S., Zaifert K., Wang G. H., Guo J. T., Seeger C. & King R. W. Antimicrob. Agents Chemother. 1997, 41, 1715-20). Removal of tetracycline from the medium [Tet (−)] results in the production of HBV. The levels of HBV in the culture supernatant fluids from cells treated with the compounds were compared with that of the untreated controls. Control cultures with tetracycline [Tet (+)] were also maintained to determine the basal levels of HBV expression. 3TC was included as positive control.
# The median effective concentrations (EC50) ranges of several of the compounds described herein against HBV are shown in Table 3: […]
# [4] = Cellular toxicity assay in human PBM cells; type: cell-based
# Protocol: as §1
# HepG2 cells = test: Cellular toxicity assay in HepG2 cells; type: cell-based; details: HepG2 cells; read-out: Cytotoxicity; CC50 (μM) HepG2
# Protocol: as §1
# human PBM = test: Cellular toxicity assay in human PBM cells; type: cell-based; details: human PBM cells; read-out: Cytotoxicity; CC50 (μM) PBM
# Protocol: as §1
# Glutathione levels (GSH) = test: Glutathione levels in Huh7 cells (GSH-Glo Glutathione Assay); type: cell-based; details: 10 μM positive control
# Protocol: Glutathione levels (GSH) were measured in Huh7 cells after 22 h treatment with 10 μM CAMs (GSH-Glo™ Glutathione Assay—Promega). Treatment of Huh7 with 10 μM positive control, L-buthionine-sulfoximine, reduced cellular GSH levels by 58% (data not shown); Samples were tested in triplicates.
# [5] = Vero cells, read-out: Cytotoxicity, CC50 (μM) VERO
# [6] = CEM lymphoblastoid cells, CEM cells, read-out: Cytotoxicity, CC50 (μM) CEM
# [7] = HepG2 cells, read-out: Cytotoxicity, CC50 (μM) HepG2
# [8] = Hepatitis B virus, AD-38 cell line, Tet (-)
# [9] = human, human PBM cells, read-out: Cytotoxicity, CC50 (μM) PBM
molecule,measurement,setting,value
"Cc1c(C(=O)C(=O)NCCCB2OC3CC4CC(C4(C)C)C3(C)O2)c(C)n(C)c1C(=O)Nc1ccc(F)c(F)c1 (stereo not shown) [Compound 62, N-(3,4-difluorophenyl)-1,3,5-trimethyl-4-(2-oxo-2-((3-(3a,5,5-trimethylhexahydro-4,6-methanobenzo[d][1,3,2]dioxaborol-2-yl)propyl)amino)acetyl)-1H-pyrrole-2-carboxamide]",CC50,[1]; [5],7 µM
same,CC50,[2]; [6],4 µM
same,CC50,[3]; [7],6 µM
same,EC50,wild type HBV; [8],10 to 100 nM
same,EC90,wild type HBV; [8],10 to 100 nM
same,CC50,[4]; [9],13 µM
"CCOC(=O)C1=C(CNCc2cn(CCCCCCCCn3cc(CNCC4=C(C(=O)OCC)C(c5ccc(F)cc5Br)N=C(c5nccs5)N4)nn3)nn2)NC(c2nccs2)=NC1c1ccc(F)cc1Br (stereo not shown) [Compound 17c, Diethyl 6,6′-((((octane-1,8-diylbis(1H-1,2,3-triazole-1,4-diyl))bis(methylene))bis-(azanediyl))bis(methylene))bis(4-(2-bromo-4-fluorophenyl)-2-(thiazol-2-yl)-1,4-dihydropyrimidine-5-carboxylate)]",CC50,[1]; [5],> 100 µM
same,CC50,[2]; [6],7.1 µM
same,CC50,[3]; [7],38.5 µM
same,EC50,wild type HBV; [8],1000 to 10000 nM
same,EC90,wild type HBV; [8],1000 to 10000 nM
same,CC50,[4]; [9],11 µM
"Fc1ccc(C2N=C(c3ccccn3)NC(CN3CCOCC3)=C2C#CC2CC2)c(Cl)c1 (stereo not shown) [Compound 8, 4-((6-(2-Chloro-4-fluorophenyl)-5-(cyclopropylethynyl)-2-(pyridin-2-yl)-3,6-dihydropyrimidin-4-yl)methyl)morpholine]",CC50,[1]; [5],49 µM
same,CC50,[2]; [6],20 µM
same,CC50,[3]; [7],36 µM
same,EC50,wild type HBV; [8],100 to 1000 nM
same,EC90,wild type HBV; [8],100 to 1000 nM
same,CC50,[4]; [9],62 µM
"Cc1c(C(=O)C(=O)NCc2cn(CCOCCOCCOCC(CO)COCCOCCOCCn3cc(CNC(=O)C(=O)c4c(C)c(C(=O)Nc5ccc(F)c(F)c5)n(C)c4C)nn3)nn2)c(C)n(C)c1C(=O)Nc1ccc(F)c(F)c1 [Compound 101, 4,4′-(2,2′-((((11-(Hydroxymethyl)-3,6,9,13,16,19-hexaoxahenicosane-1,21-diyl)bis(1H-1,2,3-triazole-1,4-diyl))bis(methylene))bis(azanediyl))bis(2-oxoacetyl))bis(N-(3,4-difluorophenyl)-1,3,5-trimethyl-1H-pyrrole-2-carboxamide)]",CC50,HepG2 cells,> 100 µM
same,EC50,"wild type HBV; AD-38 cell line, Tet (-)",10 to 100 nM
same,CC50,human PBM,> 100 µM
"CCCCS(=N)(=O)CCC(N)C(=O)O [L-buthionine-sulfoximine, reference compound]",reduction of cellular GSH levels,Glutathione levels (GSH),58%
"Fc1ccc(C2N=C(c3nccs3)NC(CN3CCOCC3)=C2C#CC2CC2)c(Br)c1 (stereo not shown) [Compound 17, 4-((6-(2-Bromo-4-fluorophenyl)-5-(cyclopropylethynyl)-2-(thiazol-2-yl)-3,6-dihydropyrimidin-4-yl)methyl)morpholine]",CC50,[1]; [5],23 µM
same,CC50,[2]; [6],17 µM
same,CC50,[3]; [7],81 µM
same,EC50,wild type HBV; [8],10 to 100 nM
same,EC90,wild type HBV; [8],100 to 1000 nM
same,CC50,[4]; [9],19 µM
"Cc1c(C(=O)C(=O)NCCCN(CCCNC(=O)C(=O)c2c(C)c(C(=O)Nc3ccc(F)c(F)c3)n(C)c2C)CCCNC(=O)C(=O)c2c(C)c(C(=O)Nc3ccc(F)c(F)c3)n(C)c2C)c(C)n(C)c1C(=O)Nc1ccc(F)c(F)c1 [Compound 16a, 4,4′,4″-(2,2′,2″-((Nitrilotris(propane-3,1-diyl))tris(azanediyl))tris(2-oxoacetyl))tris(N-(3,4-difluorophenyl)-1,3,5-trimethyl-1H-pyrrole-2-carboxamide)]",CC50,[1]; [5],9 µM
same,CC50,[2]; [6],> 100 µM
same,CC50,[3]; [7],> 100 µM
same,EC50,wild type HBV; [8],100 to 1000 nM
same,EC90,wild type HBV; [8],1000 to 10000 nM
same,CC50,[4]; [9],> 100 µM
"CCOC(=O)C1=C(CNCc2cn(CCOCCOCCOCCOCCOCCn3cc(CNC(=O)C(=O)c4c(C)c(C(=O)Nc5ccc(F)c(F)c5)n(C)c4C)nn3)nn2)NC(c2nccs2)=NC1c1ccc(F)cc1Br (stereo not shown) [Compound 50, Ethyl 4-(2-bromo-4-fluorophenyl)-6-((((1-(17-(4-((2-(5-((3,4-difluorophenyl)carbamoyl)-1,2,4-trimethyl-1H-pyrrol-3-yl)-2-oxoacetamido)methyl)-1H-1,2,3-triazol-1-yl)-3,6,9,12,15-pentaoxaheptadecyl)-1H-1,2,3-triazol-4-yl)methyl)amino)methyl)-2-(thiazol-2-yl)-1,4-dihydropyrimidine-5-carboxylate]",CC50,[1]; [5],> 100 µM
same,CC50,[2]; [6],27 µM
same,CC50,[3]; [7],> 100 µM
same,EC50,wild type HBV; [8],100 to 1000 nM
same,EC90,wild type HBV; [8],1000 to 10000 nM
same,CC50,[4]; [9],99 µM
"Cc1c(C(=O)C(=O)NCCCCCCCCO)c(C)n(C)c1C(=O)Nc1ccc(F)c(F)c1 [Compound 60, N-(3,4-Difluorophenyl)-4-(2-(8-hydroxyoctylamino)-2-oxoacetyl)-1,3,5-trimethyl-1H-pyrrole-2-carboxamide]",CC50,[1]; [5],14 µM
same,CC50,[2]; [6],4 µM
same,CC50,[3]; [7],63 µM
same,EC50,wild type HBV; [8],10 to 100 nM
same,EC90,wild type HBV; [8],100 to 1000 nM
same,CC50,[4]; [9],36 µM
"Cc1c(C(=O)C(=O)NCCCCO[P@@](=O)(N[C@@H](C)C(=O)OC(C)C)Oc2ccccc2)c(C)n(C)c1C(=O)Nc1ccc(F)c(F)c1 [Compound 58, Isopropyl ((S)-(4-(2-(5-((3,4-difluorophenyl)carbamoyl)-1,2,4-trimethyl-1H-pyrrol-3-yl)-2-oxoacetamido)butoxy)(phenoxy)phosphoryl)-L-alaninate]",CC50,[1]; [5],12 µM
same,CC50,"[2]; CEM cells, read-out: Cytotoxicity, CC50 (μM) CEM",10 µM
same,CC50,[3]; [7],29 µM
same,EC50,wild type HBV; Hepatitis B virus,100 to 1000 nM
same,EC90,wild type HBV; Hepatitis B virus,1000 to 10000 nM
same,CC50,"[4]; human PBM cells, read-out: Cytotoxicity, CC50 (μM) PBM",7 µM
"Cc1c(C(=O)C(=O)NCCCB(O)O)c(C)n(C)c1C(=O)Nc1ccc(F)c(F)c1 [Compound 64, (3-(2-(5-((3,4-Difluorophenyl)carbamoyl)-1,2,4-trimethyl-1H-pyrrol-3-yl)-2-oxoacetamido)propyl)boronic acid]",CC50,[1]; [5],76 µM
same,CC50,[2]; [6],26 µM
same,CC50,[3]; [7],98 µM
same,EC50,wild type HBV; [8],10 to 100 nM
same,EC90,wild type HBV; [8],10 to 100 nM
same,CC50,[4]; [9],62 µM
"O=C(Nc1ccc(F)c(Cl)c1)N1[C@@H]2CC[C@H]1c1c(-c3cscn3)n[nH]c1C2 [Compound 33, (4S,7R)—N-(3-Chloro-4-fluorophenyl)-3-(thiazol-4-yl)-1,4,5,6,7,8-hexahydro-4,7-epiminocyclo hepta[c]pyrazole-9-carboxamide]",CC50,[1],61 µM
same,CC50,[2],32 µM
same,CC50,[3],19 µM
same,EC50,wild type HBV; [8],100 to 1000 nM
same,EC90,wild type HBV; [8],1000 to 10000 nM
same,CC50,[4]; human,32 µM
"4,4′-(2,2′-(((Tetradecane-1,14-diylbis(1H-1,2,3-triazole-1,4-diyl))bis(methylene)) bis(azanediyl)) bis(2-oxoacetyl))bis(N-(3,4-difluorophenyl)-1,3,5-trimethyl-1H-pyrrole-2-carboxamide) [Compound 80]",CC50,HepG2 cells,> 100 µM
same,EC50,"wild type HBV; AD-38 cell line, Tet (-)",1 to 10 nM
same,CC50,human PBM,> 100 µM
"CCOC(=O)C1=C(CNCc2cn(CCCCCCCCCCCCn3cc(CNC(=O)C(=O)c4c(C)c(C(=O)Nc5ccc(F)c(F)c5)n(C)c4C)nn3)nn2)NC(c2nccs2)=NC1c1ccc(F)cc1Br (stereo not shown) [Compound 23, Ethyl 4-(2-bromo-4-fluorophenyl)-6-((((1-(12-(4-((2-(5-((3,4-difluorophenyl)-carbamoyl)-1,2,4-trimethyl-1H-pyrrol-3-yl)-2-oxoacetamido)methyl)-1H-1,2,3-triazol-1-yl)dodecyl)-1H-1,2,3-triazol-4-yl)methyl)amino)methyl)-2-(thiazol-2-yl)-1,4-dihydropyrimidine-5-carboxylate]",CC50,[1]; [5],> 100 µM
same,CC50,[2]; [6],14 µM
same,CC50,[3]; [7],63 µM
same,EC50,wild type HBV; [8],10 to 100 nM
same,EC90,wild type HBV; [8],100 to 1000 nM
same,CC50,[4]; [9],> 100 µM
"O=S(=O)(NC1CC2=C(C#CC3CC3)C(c3ccc(F)cc3Cl)N=C(c3nccs3)N2C1)C1CC1 (stereo not shown) [Compound 45, N-(3-(2-Chloro-4-fluorophenyl)-4-(cyclopropylethynyl)-1-(thiazol-2-yl)-3,5,6,7-tetrahydro-pyrrolo[1,2-c]pyrimidin-6-yl)cyclopropanesulfonamide]",CC50,[1]; [5],> 100 µM
same,CC50,[2]; [6],24 µM
same,CC50,[3]; [7],> 100 µM
same,EC50,wild type HBV; [8],10 to 100 nM
same,EC90,wild type HBV; [8],100 to 1000 nM
same,CC50,[4]; [9],75 µM
